Data as given in US20230355605A1, “DRUG FOR ENHANCING FIBRINOLYTIC SYSTEM, AND USE THEREFOR” (priority 2020, published 2023).

What was measured:
rats = test: 4-week repeated oral dose toxicity study in rats; type: in vivo
BCR-ABL^IS = test: Phase II long-term administration study with TKI in chronic-phase CML: efficacy against CML; type: in vivo, human; details: for Cumulative number of patients who achieved a DMR / Cumulative rate of patients who achieved a DMR: with TKI
Experimental: Further, the efficacy of the combined use of the present compound and the TKI against CML was evaluated.
The present compound was orally administered after breakfast to chronic-phase CML patients (33 patients) aged 20 or older and younger than 80 who had been treated orally with the TKI for 1 year or more. The dosage of the present compound was started at 150 mg/day. […] No patients dropped out or were withdrawn from the study, and all of the patients were included in analysis (SAS analysis, FAS analysis, and PPS analysis).
The efficacy against CML was evaluated from the following two points: • (1) cumulative achievement rate of CML patients who reached a DMR (BCR-ABL^IS: 0.0032% or less) • (2) change in BCR-ABL^IS
Within 28 days before the start of administration of the present compound, and 4, 8, 12, 24, 36, and 48 weeks after the start of administration of the present compound or at discontinuation, the investigator collected peripheral blood and conducted a test using a BCR-ABL^IS quantitative PCR kit (produced by Sysmex Corporation) to obtain results (IS%, ABL copy number, and BCR-ABL copy number).

cynomolgus monkeys = test: 39-week repeated oral dose toxicity study in cynomolgus monkeys; type: in vivo; details: 10, 30, 100 mg/kg oral, 39 weeks
Experimental: A GLP-compliant 39-week repeated oral dose study was performed in cynomolgus monkeys at dosages of 10, 30, and 100 mg/kg.

[1] = tested on: patients with COVID-19 pneumonia (mild to moderate); test: Effectiveness study for COVID-19 pneumonia (exploratory early phase II study); type: in vivo, human
Description: The effect of the present compound to prevent the aggravation of COVID-19 pneumonia and its safety were explored.
Occurrence of transition to oxygen supply treatment under mechanical ventilation after the oral administration of the present compound (occurrence of deterioration of oxygenation)
• (a) Survival for 28 days from the start of administration of the present compound • (b) Duration of hospitalization after the start of administration of the present compound • (c) Number of days required for oxygen administration after the start of administration of the present compound (d) Changes in the proportion of lesions in the lung field on chest CT images before and after the administration of the present compound
Occurrence of adverse events after the start of administration of the present compound until the end of observation

[2] = tested on: cynomolgus monkey model of saphenous arterial thrombus; test: Cynomolgus monkey model of saphenous arterial thrombus (PIT model); type: in vivo
Experimental: The thrombus formation inhibitory effect of the present compound was evaluated using a cynomolgus monkey model of saphenous arterial thrombus (PIT model) .
Before the procedure, the present compound suspended in a 0.5% CMC-Na aqueous solution was orally administered to test groups of cynomolgus monkeys at dosages of 0.1, 0.3, 1, and 3 mg/kg. […] A light irradiation probe was placed on a saphenous artery of each cynomolgus monkey to cause thrombus formation by applying green light of 540 nm for 20 minutes at the time of intravenously administering rose bengal (20 mg/kg). A decrease in blood flow due to this thrombus formation was measured with a pulse Doppler blood flowmeter, and the thrombus formation inhibitory effect of the present compound was evaluated by measuring the occlusion time on the first day and the cumulative occlusion time.

[3] = 30, 60, 120, 250 mg/kg/day oral, 4 weeks
[4] = 120 to 180 mg/day oral, 14 days
[5] = after the start of administration, excluding undescribed and discontinued cases
[6] = start of administration to end of observation, 26 patients

O=C(Nc1ccc(Cl)cc1C(=O)[O-])c1cccc(-c2cccc3cccnc23)c1.[Na+] [present compound, sodium 5-chloro-2-({ [3-(quinolin-8-yl)phenyl]carbonyl}amino)benzoate]
deaths during the administration period (rats; [3]): No deaths | effect on general condition, body weight, food consumption, ophthalmology, ECG, hematology, urinalysis, necropsy, organ weights (rats; [3]): No effect | no-observed-adverse-effect level (rats; rats, males and females, 4-week repeated oral dose): 250 mg/kg/day | Cumulative number of patients who achieved a DMR (BCR-ABL^IS; 4 weeks after the start of administration, 33 patients): 5 | Cumulative rate of patients who achieved a DMR (BCR-ABL^IS; 4 weeks after the start of administration): 15.2% | Cumulative number of patients who achieved a DMR (BCR-ABL^IS; 8 weeks after the start of administration, 33 patients): 9 | Cumulative rate of patients who achieved a DMR (BCR-ABL^IS; 8 weeks after the start of administration): 27.3% | Cumulative number of patients who achieved a DMR (BCR-ABL^IS; 12 weeks after the start of administration, 33 patients): 9 | Cumulative rate of patients who achieved a DMR (BCR-ABL^IS; 12 weeks after the start of administration): 27.3% | change in BCR-ABL^IS vs baseline (BCR-ABL^IS; 15 patients, 150 mg/day continuous, weeks 12 and 24): significant decrease | change in BCR-ABL^IS vs baseline (BCR-ABL^IS; 18 patients, 150 mg/day to 180 mg/day increase, week 48): significant decrease | Cumulative number of patients who achieved a DMR (BCR-ABL^IS; 24 weeks after the start of administration, 33 patients): 10 | Cumulative rate of patients who achieved a DMR (BCR-ABL^IS; 24 weeks after the start of administration): 30.3% | change in BCR-ABL^IS vs baseline (BCR-ABL^IS; 33 patients, from week 12 onward, Wilcoxon test): significant decrease | Cumulative number of patients who achieved a DMR (BCR-ABL^IS; 36 weeks after the start of administration, 33 patients): 11 | Cumulative rate of patients who achieved a DMR (BCR-ABL^IS; 36 weeks after the start of administration): 33.3% | Cumulative number of patients who achieved a DMR (BCR-ABL^IS; 48 weeks after the start of administration, 33 patients): 11 | Cumulative rate of patients who achieved a DMR (BCR-ABL^IS; 48 weeks after the start of administration): 33.3% | cumulative DMR achievement rate (BCR-ABL^IS; from week 36 onward, 150 to 180 mg/day with TKI): 33.3% | patients who achieved a DMR (BCR-ABL^IS; of the 33 patients, 150 to 180 mg/day with TKI): 11 patients | BCR-ABL^IS level (mean ± standard deviation) (BCR-ABL^IS; week 4, 33 patients, P = 0.1222): 0.0134±0.01301% | BCR-ABL^IS level (mean ± standard deviation) (BCR-ABL^IS; week 8, 33 patients, P = 0.0929): 0.0129±0.01569% | BCR-ABL^IS level (mean ± standard deviation) (BCR-ABL^IS; week 12, 33 patients, P = 0.0228): 0.0133±0.02012% | BCR-ABL^IS level (mean ± standard deviation) (BCR-ABL^IS; week 24, 33 patients, P = 0.0427): 0.0149±0.02596% | BCR-ABL^IS level (mean ± standard deviation) (BCR-ABL^IS; week 36, 33 patients, P = 0.0304): 0.0152±0.03427% | BCR-ABL^IS level (mean ± standard deviation) (BCR-ABL^IS; week 48, 33 patients, P = 0.0124): 0.0210±0.06718% | deaths during the administration period (cynomolgus monkeys): No deaths | effect on general condition, body weight, food consumption, ophthalmology, ECG, hematology, urinalysis, necropsy, organ weights (cynomolgus monkeys): No effect | deterioration of oxygenation requiring mechanical ventilation [1, 4]: no cases | number of days required for oxygen administration after the start of administration [1, 4]: gradually decreased | survival for 28 days from the start of administration [1, 4]: all cases survived | adverse events in patients concomitantly treated with Remdesivir, Avigan, inhaled steroid or antiplatelet agent ([1]; Remdesivir 8, Avigan 5, inhaled steroid 22, antiplatelet agent 5 cases): no adverse events requiring treatment | Number of cases with duration of hospitalization 8 to 12 days [1, 5]: 5 | Number of cases with duration of hospitalization 13 to 17 days [1, 5]: 12 | Number of cases with duration of hospitalization 18 to 22 days [1, 5]: 4 | number of cases, oxygen dosage 0 L/day ([1]; day 1): 3 | number of cases, oxygen dosage 2 or less L/day ([1]; day 1): 12 | number of cases, oxygen dosage 5 or more L/day ([1]; day 1): 3 | number of cases, oxygen dosage More than 2 less than 5 L/day ([1]; day 1): 5 | number of cases, oxygen dosage 0 L/day ([1]; day 2): 3 | number of cases, oxygen dosage 2 or less L/day ([1]; day 2): 12 | number of cases, oxygen dosage 5 or more L/day ([1]; day 2): 2 | number of cases, oxygen dosage More than 2 less than 5 L/day ([1]; day 2): 6 | number of cases, oxygen dosage 0 L/day ([1]; day 3): 4 | number of cases, oxygen dosage 2 or less L/day ([1]; day 3): 13 | number of cases, oxygen dosage 5 or more L/day ([1]; day 3): 0 | number of cases, oxygen dosage More than 2 less than 5 L/day ([1]; day 3): 6 | number of cases, oxygen dosage 0 L/day ([1]; day 4): 7 | number of cases, oxygen dosage 2 or less L/day ([1]; day 4): 11 | number of cases, oxygen dosage 5 or more L/day ([1]; day 4): 0 | number of cases, oxygen dosage More than 2 less than 5 L/day ([1]; day 4): 5 | number of cases, oxygen dosage 0 L/day ([1]; day 5): 7 | number of cases, oxygen dosage 2 or less L/day ([1]; day 5): 12 | number of cases, oxygen dosage 5 or more L/day ([1]; day 5): 0 | number of cases, oxygen dosage More than 2 less than 5 L/day ([1]; day 5): 4 | number of cases, oxygen dosage 0 L/day ([1]; day 6): 10 | number of cases, oxygen dosage 2 or less L/day ([1]; day 6): 9 | number of cases, oxygen dosage 5 or more L/day ([1]; day 6): 0 | number of cases, oxygen dosage More than 2 less than 5 L/day ([1]; day 6): 4 | number of cases, oxygen dosage 0 L/day ([1]; day 7): 10 | number of cases, oxygen dosage 2 or less L/day ([1]; day 7): 9 | number of cases, oxygen dosage 5 or more L/day ([1]; day 7): 0 | number of cases, oxygen dosage More than 2 less than 5 L/day ([1]; day 7): 4 | number of cases, oxygen dosage 0 L/day ([1]; day 8): 12 | number of cases, oxygen dosage 2 or less L/day ([1]; day 8): 10 | number of cases, oxygen dosage 5 or more L/day ([1]; day 8): 0 | number of cases, oxygen dosage More than 2 less than 5 L/day ([1]; day 8): 1 | number of cases, oxygen dosage 0 L/day ([1]; day 9): 13 | number of cases, oxygen dosage 2 or less L/day ([1]; day 9): 9 | number of cases, oxygen dosage 5 or more L/day ([1]; day 9): 0 | number of cases, oxygen dosage More than 2 less than 5 L/day ([1]; day 9): 1 | number of cases, oxygen dosage 0 L/day ([1]; day 10): 17 | number of cases, oxygen dosage 2 or less L/day ([1]; day 10): 6 | number of cases, oxygen dosage 5 or more L/day ([1]; day 10): 0 | number of cases, oxygen dosage More than 2 less than 5 L/day ([1]; day 10): 0 | number of cases, oxygen dosage 0 L/day ([1]; day 11): 18 | number of cases, oxygen dosage 2 or less L/day ([1]; day 11): 5 | number of cases, oxygen dosage 5 or more L/day ([1]; day 11): 0 | number of cases, oxygen dosage More than 2 less than 5 L/day ([1]; day 11): 0 | number of cases, oxygen dosage 0 L/day ([1]; day 12): 20 | number of cases, oxygen dosage 2 or less L/day ([1]; day 12): 3 | number of cases, oxygen dosage 5 or more L/day ([1]; day 12): 0 | number of cases, oxygen dosage More than 2 less than 5 L/day ([1]; day 12): 0 | number of cases, oxygen dosage 0 L/day ([1]; day 13): 21 | number of cases, oxygen dosage 2 or less L/day ([1]; day 13): 2 | number of cases, oxygen dosage 5 or more L/day ([1]; day 13): 0 | number of cases, oxygen dosage More than 2 less than 5 L/day ([1]; day 13): 0 | number of cases, oxygen dosage 0 L/day ([1]; day 14): 22 | number of cases, oxygen dosage 2 or less L/day ([1]; day 14): 1 | number of cases, oxygen dosage 5 or more L/day ([1]; day 14): 0 | number of cases, oxygen dosage More than 2 less than 5 L/day ([1]; day 14): 0 | number of cases with reduced proportion of lesions in the lung field on chest CT images ([1]; out of 18 cases, administration for 14 days): 13 cases | adverse events related to the present compound and requiring treatment ([1]; start of administration to end of observation): no adverse events that were related to the present compound and that required treatment | number of adverse events [1, 6]: 33 | number of patients with adverse events [1, 6]: 17 patients | initial occlusion time vs vehicle group ([2]; 0.3 mg/kg oral, P<0.05): Significant prolongation | cumulative occlusion time vs vehicle group ([2]; 0.1, 0.3, 1.0, 3.0 mg/kg oral, P<0.01, dose-dependent): significant reductions | minimum effective dosage ([2]; oral administration to monkeys): 0.1 mg/kg
